Article PMC10011747, “Targeting androgen receptor and the variants by an orally bioavailable Proteolysis Targeting Chimeras compound in castration resistant prostate cancer” (eBioMedicine, 2023)
Like-named read-outs stand apart in the source and are kept apart here.

How the values were obtained:
[1] = test system: full-length AR; assay: AR degradation by western blot in prostate cancer cell lines; assay type: cell-based, human; conditions: for sustainability of AR and AR-V(ΔLBD) degradation after drug washout: 10 μM for 24 h then washout, LNCaP, CWR22Rv1, VCaP; for AR degradation: CWR22Rv1 cells (Table S1); for DC50: 24 h treatment; for AR Dmax CWR22Rv1 / AR Dmax VCaP: maximum degradation at 20 μM
Procedure: To obtain total lysates, cells were lysed in RIPA buffer (50 mM Tris–HCl pH 8.0, 150 mM NaCl, 1% NP-40, 0.5% Na-deoxycholate, 0.5% SDS plus protease inhibitors). The lysates were resolved by SDS-polyacrylamide gel electrophoresis, and the protein expression was analyzed by western blotting using primary antibodies against AR (Millipore Cat# 06-680, RRID:AB_310214), AR-V7 (RevMAb Biosciences Cat# 31-1109-00, RRID:AB_2716436), GAPDH (Cell Signaling Technology Cat# 2118, RRID:AB_561053) and Actin (Sigma–Aldrich Cat# A5441, RRID:AB_476744). pLenti4/TO/Flag-AR or pLenti4/TO/Flag-TC-AR plasmid was co-transfected with HA-ubiquitin plasmid into 293T cells. 24 h after transfection, the cells were treated with 10 μM of the PROTAC compounds for 16 h, followed by 4-h treatment of 5 μM MG132. The cells were lysed with lysis buffer (50 mM Tris–HCl pH7.5, 150 mM NaCl, 0. 5% Triton X-100, 10% glycerol, 1 mM EDTA plus protease inhibitors) containing 1 ng/mL of N-ethylmaleimide, followed by immunoprecipitation with anti-Flag M2 (Sigma–Aldrich Cat# F3165, RRID:AB_259529) antibody. The ubiquitinated AR was then detected by western blotting using anti-HA (Sigma–Aldrich Cat# H3663, RRID:AB_262051) antibody.
Fig. 1 PROTAC-based AR degraders ITRI-90, ITRI-125 and ITRI-126 reduce AR and AR-V7 proteins in prostate cancer cell lines. (a) Chemical structure of the PROTAC AR degraders. (b) Representative western blots of AR protein levels in LNCaP, CWR22Rv1 and VCaP cells treated with the PROTAC degraders for 24 h. AR was detected by N-terminal antibody which also detects C-terminal truncated AR-V(ΔLBD) in CWR22Rv1 cells. AR-V7 specific antibody was used for AR-V7 detection. 4%–12% gradient gel was used to separate different species of AR-V(ΔLBD) near 75 kDa in CWR22Rv1 cell lysates. DC50 indicating the concentration required to achieve 50% degradation, was calculated based on normalized full-length AR and AR-V7 band intensity. Dmax is the maximum degradation achieved at 20 μM compound treatment. TEXT PRINTED IN THE PICTURE: (a) ITRI-90: AR DC50 (μM) LNCaP: 2.12 ± 0.93; AR DC50 (μM) CWR22Rv1: 5.73 ± 2.28; AR DC50 (μM) VCaP: 8.67 ± 4.87; AR-V7 DC50 (μM) CWR22Rv1: 4.72 ± 2.52; AR-V7 DC50 (μM) VCaP: 0.29 ± 0.15; AR Dmax (%) LNCaP: 88; AR Dmax (%) CWR22Rv1: 98; AR Dmax (%) VCaP: 90; AR-V7 Dmax (%) CWR22Rv1: 100; AR-V7 Dmax (%) VCaP: 63 | (a) ITRI-125: AR DC50 (μM) LNCaP: 6.10 ± 4.43; AR DC50 (μM) CWR22Rv1: 6.64 ± 1.87; AR DC50 (μM) VCaP: 9.05 ± 3.75; AR-V7 DC50 (μM) CWR22Rv1: 1.89 ± 1.06; AR-V7 DC50 (μM) VCaP: 0.52 ± 0.37; AR Dmax (%) LNCaP: 71; AR Dmax (%) CWR22Rv1: 96; AR Dmax (%) VCaP: 85; AR-V7 Dmax (%) CWR22Rv1: 99; AR-V7 Dmax (%) VCaP: 67 | (a) ITRI-126: AR DC50 (μM) LNCaP: 3.41 ± 3.13; AR DC50 (μM) CWR22Rv1: 0.11 ± 0.02; AR DC50 (μM) VCaP: 0.851 ± 0.43; AR-V7 DC50 (μM) CWR22Rv1: 0.011 ± 0.003; AR-V7 DC50 (μM) VCaP: 0.43 ± 0.19; AR Dmax (%) LNCaP: 99; AR Dmax (%) CWR22Rv1: 74; AR Dmax (%) VCaP: 94; AR-V7 Dmax (%) CWR22Rv1: 91; AR-V7 Dmax (%) VCaP: 82

[2] = Pharmacokinetic analysis in BALB/c mice; assay type: in vivo, mouse; conditions: for bioavailability: read-out: BA (bioavailability); for clearance: read-out: plasma clearance rate
Procedure: Six to eight-week-old male BALB/c (BALB/cAnNCrlBltw) mice weighing between 22 and 30 g were purchased from BioLASCO Taiwan Co., Ilan, Taiwan. In vivo PK analysis of the PROTAC compounds was performed with 2 mg/kg for intravenous injection (IV, n = 2), 10 mg/kg for intraperitoneal injection (IP, n = 3), and 10 or 30 mg/kg for oral (PO, n = 3) dosing route. Blood samples from the mice were collected using Microvette® CB 300 EDTA blood collection tubes by a lancet at 0.167 h (IV only), 0.5, 1, 2, 4, 7 and 24 h time points. The plasma was then subjected to LC-MS analysis to quantitate the drug concentration against calibration curves that were established with drug standards prepared in mice plasma.

[3] = CWR22Rv1 cells, read-out: AR DC50 CWR22Rv1
[4] = VCaP cells, read-out: AR DC50 VCaP
[5] = male, BALB/c, mouse, plasma, IP, 10 mg/kg
[6] = male, BALB/c, mouse, plasma, PO, 30 mg/kg
[7] = male, BALB/c, mouse, plasma, intravenous, 2 mg/kg
[8] = male, BALB/c, mouse, plasma, ip, 10 mg/kg, 0-24 h
[9] = male, BALB/c, mouse, plasma, ip, 10 mg/kg, IP, 10 mg/kg, read-out: Cmax
[10] = male, BALB/c, mouse, plasma, PO, 10 mg/kg

Cc1ncsc1-c1ccc(CNC(=O)[C@@H]2C[C@H](O)CN2C(=O)[C@@H](NC(=O)COCCCCOc2ccc(C3CCN(C4=Nn5c(nnc5C(F)(F)F)CC4)CC3)cc2)C(C)(C)C)cc1 [ITRI-90, (2S,4S)-1-((S)-3,3-dimethyl-2-(2-(4-(4-(1-(3-(trifluoromethyl)-7,8-dihydro-[1,2,4]triazolo[4,3-b]pyridazin-6-yl)piperidin-4-yl)phenoxy)butoxy)acetamido)butanoyl)-4-hydroxy-N-(4-(4-methylthiazol-5-yl)benzyl)pyrrolidine-2-carboxamide]
sustainability of AR and AR-V(ΔLBD) degradation after drug washout [1]: sustain low protein levels up to 24 h after drug washout
AR degradation [1]: 98.28%
DC50 [1, 3]: 5.73 ± 2.28 µM
AR Dmax CWR22Rv1 ([1]; CWR22Rv1 cells): 98%
DC50 [1, 4]: 8.67 ± 4.87 µM
AR Dmax VCaP ([1]; VCaP cells): 90%
Cmax ([2]; PO, 30 mg/kg): 7056.67 ± 2594.81 ng/mL
AUC/Dose ([2]; PO, 30 mg/kg, 0-24 h): 600.13 ± 263.33 h⋅kg⋅ng/mL/mg
Tmax [2, 5]: 1.5 ± 0.7 h
Tmax [2, 6]: 1.67 ± 0.58 h
bioavailability [2, 6]: 23%
clearance [2, 7]: 6.62 mL/min/kg
AUC(0-t) [2, 8]: 25500 ± 13600 ng·h/mL
Cmax [2, 9]: 3940 ± 1140 ng/mL
AUC(0-t) ([2]; male, BALB/c, mouse, plasma, po, 30 mg/kg, 0-24 h): 18000 ng·h/mL
Cmax ([2]; male, BALB/c, mouse, plasma, po, 30 mg/kg, PO, 30 mg/kg, read-out: Cmax): 7060 ng/mL

Cc1ncsc1-c1ccc(CNC(=O)[C@@H]2C[C@H](O)CN2C(=O)[C@@H](NC(=O)COCCCCCCOc2ccc(C3CCN(C4=Nn5c(nnc5C(F)(F)F)CC4)CC3)cc2)C(C)(C)C)cc1 [ITRI-125, (2S,4S)-1-((S)-3,3-dimethyl-2-(2-(6-(4-(1-(3-(trifluoromethyl)-7,8-dihydro-[1,2,4]triazolo[4,3-b]pyridazin-6-yl)piperidin-4-yl)phenoxy)hexyloxy)acetamido)butanoyl)-4-hydroxy-N-(4-(4-methylthiazol-5-yl)benzyl)pyrrolidine-2-carboxamide]
sustainability of AR and AR-V(ΔLBD) degradation after drug washout [1]: lost the degrading effects on both full-length and truncated AR within 8 h post drug removal
AR degradation [1]: 92.53%
DC50 [1, 3]: 6.64 ± 1.87 µM
AR Dmax CWR22Rv1 ([1]; CWR22Rv1 cells): 96%
DC50 [1, 4]: 9.05 ± 3.75 µM
AR Dmax VCaP ([1]; VCaP cells): 85%
AUC/Dose ([2]; intravenous, 2 mg/kg): 2839.9 ± 36.7 ng·h/mL
clearance [2, 7]: 5.68 mL/min/kg

O=C1CCC(N2Cc3c(NC(=O)COCCCCOc4ccc(C5CCN(C6=Nn7c(nnc7C(F)(F)F)CC6)CC5)cc4)cccc3C2=O)C(=O)N1 (stereo not drawn) [ITRI-126, N-(2-(2,6-dioxopiperidin-3-yl)-1-oxoisoindolin-4-yl)-2-(4-(4-(1-(3-(trifluoromethyl)-7,8-dihydro-[1,2,4]triazolo[4,3-b]pyridazin-6-yl)piperidin-4-yl)phenoxy)butoxy)acetamide]
sustainability of AR and AR-V(ΔLBD) degradation after drug washout [1]: sustain low protein levels up to 24 h after drug washout
DC50 [1, 3]: 0.11 ± 0.02 µM
AR Dmax CWR22Rv1 ([1]; CWR22Rv1 cells): 74%
DC50 [1, 4]: 0.851 ± 0.43 µM
AR Dmax VCaP ([1]; VCaP cells): 94%
AUC/Dose ([2]; IP, 10 mg/kg, 0-24 h): 234.2 ± 26.3 h⋅kg⋅ng/mL/mg
AUC/Dose ([2]; PO, 10 mg/kg, 0-24 h): 20.4 ± 8.6 h⋅kg⋅ng/mL/mg
Tmax [2, 5]: 1.5 ± 0.5 h
Tmax [2, 10]: 0.7 ± 0.2 h
bioavailability [2, 10]: 4.6 ± 1.9%
clearance [2, 7]: 24.7 mL/min/kg
AUC(0-t) [2, 8]: 2340 ± 263 ng·h/mL
Cmax [2, 9]: 706 ± 222 ng/mL
AUC(0-t) ([2]; male, BALB/c, mouse, plasma, po, 10 mg/kg, 0-24 h): 204 ± 85.9 ng·h/mL
Cmax ([2]; male, BALB/c, mouse, plasma, po, 10 mg/kg, PO, 10 mg/kg, read-out: Cmax): 95.7 ± 47.1 ng/mL
